Entries after “also recorded” stand apart in the source; their conditions may differ.
Columns and labels:
Format in all cases: cell-based
[1] = test system: astrocytes differentiated from human stem cells (hPSCs); test: MeHg toxicity on astrocytes cultured in the nerve chip, Calcein-AM live cell imaging
Text: Astrocytes, differentiated from human stem cells (hPSCs), were secured by direct differentiation. Human stem cells (hPSCs) were maintained through culture and passage by using TeSr-E8 medium in a Matrigel-coated culture dish, and for differentiation into neurons, neural progenitor cells (NPCs) were first prepared. The stem cell colonies were detached using […], and then embryoid bodies (EBs) were formed using DMEM/F12 medium containing 20% knock out serum replacement, 1% nonessential amino acids, 55 μM β-mercaptoethanol, 10 μM SB431542, and 5 μM DMH1, and then again attached to a Matrigel-coated culture dish to form neural rosettes in DMEM/F12 medium containing 1% N2 supplement, […] insulin, and 20 ng/mL basic fibroblast growth factor. Only the center of the rosettes was separated using a thinly drawn Pasteur pipette, and then cultured in DMEM/F12 medium containing 1% N2 supplement, 20 ng/mL basic fibroblast growth factor, and 20 ng/mL epidermal growth factor to secure NPCs. The secured NPCs were again attached to a Matrigel-coated culture dish at a density of 2.8×10^3 cells/cm, and cultured in DMEM/F12 medium containing 1% N2 supplement, 2% vitamin A-removed B27 supplement, 10 ng/mL bone morphogenetic protein-4, 10 ng/mL ciliary neurotrophic factor, and 10 ng/mL leukemia inhibitory factor to thereby obtain finally differentiated astrocytes. […]
It was assessed whether neurotoxicity can be evaluated by a noticeable biomimetic nerve chip of the present invention in which an in vivo environment similar to physiological characteristics of the nervous system was constructed. […] The neurotoxicity evaluation was conducted by treating a chip having only neurons cultured and a chip having neurons and astrocytes co-cultured, with MeHg at various concentrations (0 μM, 1 μM, 5 μM, 10 μM) for 3 hours and then examining the cell response changes according to the MeHg time and concentration through real-time live cell imaging and immunocytochemistry, and then the functionality of the biomimetic nerve chip as a drug toxicity evaluation platform was assessed (FIGS. 8 to 10).

[2] = test system: neurons co-cultured with astrocytes (human stem cell-derived); test: MeHg neurotoxicity on neurons co-cultured with astrocytes in the nerve chip (astrocyte neuroprotection), Calcein-AM and MAP2
Experimental: (§1) The injection of cells was conversely conducted. Human stem cell-derived neurons (Neurosight-S) were preferentially injected, wherein the neurons were prepared at an appropriate concentration for injection of 15×10^4 cells/6 μL, load into the neuron inlet, and injected into the neuron chamber. Human stem cell-derived astrocytes were prepared at an appropriate concentration for injection of 15×10^4 cells/6 μL, and nozzles of syringes each carrying 30 μL were connected to the astrocyte inlets, and the astrocytes were injected into the two astrocyte chambers by using a syringe pump.
(§2) It was assessed whether neurotoxicity can be evaluated by a noticeable biomimetic nerve chip of the present invention in which an in vivo environment similar to physiological characteristics of the nervous system was constructed. First, methylmercury chloride (MeHg), a representative environmental toxic substance known to pass through the brain barrier regardless of a structure of the brain barrier and to have neurotoxicity, was selected as a toxic substance for treatment. The neurotoxicity evaluation was conducted by treating a chip having only neurons cultured and a chip having neurons and astrocytes co-cultured, with MeHg at various concentrations (0 μM, 1 μM, 5 μM, 10 μM) for 3 hours and then examining the cell response changes according to the MeHg time and concentration through real-time live cell imaging and immunocytochemistry, and then the functionality of the biomimetic nerve chip as a drug toxicity evaluation platform was assessed (FIGS. 8 to 10).
Finally, it was examined whether there was a neuroprotective function from the neurotoxicity of MeHg depending on the presence or absence of astrocytes inside the biomimetic nerve chip. MeHg treatment was conducted under two conditions in which […] were cultured alone and neurons and astrocytes were co-cultured, and the cell viability was evaluated in real time according to the time and concentration changes by using Calcein-AM (FIGS. 10A to 10C). […]

[3] = test system: neurons differentiated from human stem cells (hPSCs) (Neurosight-S); test: MeHg neurotoxicity on neurons cultured alone in the nerve chip, immunostaining with Tuj1 and MAP2; conditions: 1 μM, 5 μM and 10 μM MeHg, 3 hours
Experimental: as §2
The cell types can be distinguished by morphological characteristics of cells, but Calcein-AM targets all living cells regardless of the type of cells and thus cannot clearly identify the types of cells. The present inventors re-examined whether the neurons were damaged at the same extent by MeHg, through immunostaining using Tuj1 and MAP2 antibodies targeting only neurons (FIG. 8C).

[4] = test system: astrocytes differentiated from human stem cells (hPSCs); test: MeHg toxicity on astrocytes in the nerve chip, immunostaining with GFAP and S100B; conditions: 3 hours
Experimental: as §2
On the basis of the assertion that this S100B increase is associated with CNS damage, immunostaining was performed using GFAP and S100B, which were used as markers for brain damage due to metal-induced neurotoxicity, in order to identify astrocytes and examine the response of astrocytes in the MeHg detection (FIG. 9C).

[5] = test system: neurons differentiated from human stem cells (hPSCs) (Neurosight-S); test: MeHg neurotoxicity on neurons cultured alone in the biomimetic nerve chip, Calcein-AM live cell imaging
Experimental: Neurons differentiated from human stem cells (hPSCs) were secured through neurons (Neurosight-S) by NEXEL. A stock was thawed and injected immediately into the chip. The neurons were prepared at an appropriate concentration for injection of 15×10^4 cells/6 μL, loaded into the neuron inlet included in the nerve chip of the present invention, and injected into the neuron chamber passing through the neuron channel. The bottom of the neuron chamber was coated with Matrigel, which was three times more concentrated than usual, for stable attachment in the chip, and the neurons were cultured in Neurosight-S medium supplemented with Supplement (100×) for 3 days during which neurites can be formed.
as §1, §2
Most of the neurons in the control group formed neurite networks while having intact cell bodies and neurites.
The MeHg treatment concentrations were set to 1 μM, 5 μM, and 10 μM, and similarly, the viability of neurons was examined in real time through Calcein-AM.

[6] = in the presence of astrocytes, MeHg 1, 5, 10 μM, 3 hours
[7] = as the concentration of MeHg increased (1, 5, 10 μM)

## [CH3][Hg][Cl] [MeHg, methylmercury chloride]
[1]; MeHg 1, 5, 10 μM, 3 hours
  degree of morphological change of astrocytes according to concentration, Calcein-AM: no significant difference in the degree of morphological change due to cell aggregation regardless of the concentration
[1]; MeHg 1, 5, 10 μM, up to 3 hours
  cell viability of astrocytes, Calcein-AM: no decrease in cell viability was observed
[1]; MeHg, 1-hour intervals for 3 hours
  morphological changes of astrocytes over time, Calcein-AM: morphological changes of astrocytes due to cell aggregation were observed over time
[2]; [6]
  Calcein-AM signal of neurons according to concentration: maintained without any decrease
  MAP2 signal of neurons according to concentration: maintained without any decrease
[2]; neurons co-cultured with astrocytes, 10 μM MeHg, until 3 hours after treatment
  viability and morphological changes of neurons over time, Calcein-AM: no significant changes were observed, except for a few strands of neurites that partially disappeared
[3]
  damage to neurons, immunostaining Tuj1 and MAP2: the damage to cells increased as the concentration increased
[4]; [7]
  GFAP expression signal in astrocytes: the GFAP signal decreased
  S100B expression signal in astrocytes: the S100B signal increased
[4]; astrocytes, MeHg 1, 5, 10 μM
  viability of astrocytes, immunostaining: the viability of astrocytes was not changed
[5]; 1 μM MeHg, after 3 hours
  viability and morphology of neurons (neurites), Calcein-AM: some neurites endured neurotoxicity of MeHg without damage to maintain the state thereof
[5]; 5 μM MeHg, after 3 hours
  viability and morphology of neurons (neurites), Calcein-AM: the neurites almost completely disappeared, leaving only fragmented fragments and only a form of cell bodies; also recorded: neurites disappeared and only the cell bodies remained
[5]; 5 μM MeHg, until 2 hours after treatment
  viability and morphology of neurons (neurites), Calcein-AM: the neurites maintained the state thereof with deterioration little by little without any significant change
[5]; 10 μM MeHg, 1-hour intervals for 3 hours
  Calcein-AM signal of neurons over time: most of the Calcein-AM signals started to rapidly decrease 2 hours after MeHg treatment
[5]; 10 μM MeHg, after 3 hours
  viability and morphology of neurons (neurites, cell bodies), Calcein-AM: even the fluorescence signal of the remaining cell bodies was greatly reduced

From patent publication US20230011800A1, “[…] CHIP FOR […] AND TOXICITY ON NERVE, AND USE THEREOF” (CHA UNIVERSITY INDUSTRY-ACADEMIC COOPERATION FOUNDATION, priority 2019, published 2023)
